≈ marks a conversion by molar mass, not a printed value.
Key:
[1] = Cytotoxicity in mammalian cells (MTT); type: cell-based; conditions: mouse; murine macrophages, 48 h at 37 °C in 5% CO2, MTT, mean ± standard deviation
Description: (§1) The in vitro antileishmanial activity was evaluated by incubating the promastigotes or axenic amastigotes (1 × 10^6 cells/well) with the 24 synthetic derivatives (Compounds 5–28; 0 to 600 µg/mL) in 96-well culture plates (Nunc, Nunclon, Roskilde, Denmark) for 48 h at 24 °C. Due to the difficulty in obtaining a high concentration of murine macrophages, the cytotoxicity experiment was evaluated by incubating such cells (5 × 10^5 per mL) with Compound 28 (0 to 600 µg/mL), which presented the best antileishmanial activity, for 48 h at 37 °C in a 5% CO2 environment. AmpB (0 to 10 µg/mL; Sigma-Aldrich, St. Louis, MO, USA) was used as a positive control in both experiments. The cell viability was assessed using the 3-(4.5-dimethylthiazol-2-yl)-2.5-diphenyl tetrazolium bromide (MTT, Sigma-Aldrich, St. Louis, MO, USA) method. The optical density (OD) values were read using a microplate spectrophotometer (Molecular Devices, Spectra Max Plus, San Jose, CA, USA) at 570 nm. Results were entered into Microsoft Excel (version 10.0) spreadsheets, and the 50% Leishmania and macrophage inhibitory concentrations (IC50 and CC50, respectively) were calculated by applying a sigmoidal regression of the dose–response curve. The SI was calculated by dividing the CC50 with the respective IC50 values.

[2] = system: L. braziliensis promastigotes; assay: ROS production in promastigotes (H2DCFDA); type: cell-based, Leishmania braziliensis; conditions: one IC50 value, 48 h at 24 °C
Description: After treatment with Compound 28 (at a concentration corresponding to one IC50 value) for 48 h at 24 °C, L. braziliensis promastigotes were washed with PBS, and the parasite concentration was adjusted to 3 × 10^6 cells per well. H2DCFDA (Sigma-Aldrich, St. Louis, MO, USA) was then added and incubated for 30 min in the dark, and samples were read in a fluorometric microplate reader (FLx800, BioTek Instruments, Winooski, VT, USA) with excitation and emission wavelengths of 485 and 528 nm, respectively. Parasites that were untreated or treated with Compound 28 and not labeled with the fluorescent probe were used as the blank.
Figure 4 ΔΨm and ROS production in Leishmania after exposure to Compound 28. Leishmania braziliensis promastigotes were not exposed (negative control) or exposed to Compound 28 (at a concentration corresponding to the IC50 value) for 48 h. (A) Depolarization of ΔΨm was evaluated using the JC-1 fluorescent probe. Samples were analyzed fluorometrically, and the results are expressed as the ratio of red/green fluorescence. FCCP ([…]) was used as a positive control. (B) ROS production was evaluated using the H2DCFDA probe. The fluorescence intensity was measured by fluorimetry, and the results are expressed as the fold increase in the ROS level compared with the non-treated control. H2O2-treated parasites were used as a positive control. […]

[3] = system: Leishmania braziliensis axenic amastigotes; assay: In vitro antileishmanial activity against axenic amastigotes (MTT); type: cell-based
Description: To obtain the axenic amastigotes, 1 × 10^9 stationary promastigotes were washed three times in sterile phosphate-buffered saline (PBS) and incubated in 5 mL FBS for 48 h at 37 °C. Parasites were washed with cold PBS, and their morphology was evaluated with an optical microscope after Giemsa staining as previously described.
as §1

[4] = system: L. braziliensis-infected macrophages; assay: Treatment of infected macrophages; type: cell-based, Leishmania braziliensis; conditions: 48 h at 37 °C; for Number of Amastigotes per Cell after treatment: untreated 10.3; for Percentage of Infected Macrophages after Treatment: untreated 92.8
Description: Murine macrophages (5 × 10^5 cells) were plated on round glass coverslips in 24-well plates in RPMI 1640 medium with added 20% FBS and 20 mmol/L L-glutamine at pH 7.4 and incubated for 24 h at 37 °C in 5% CO2. Promastigotes were added to the wells (at a ratio of 10 parasites per macrophage), and cultures were incubated for 48 h at 37 °C in a 5% CO2 environment. Free parasites were removed by extensive washing with RPMI 1640 medium, and the infected macrophages were treated with Compound 28 or AmpB (0, 1.0, 2.5 and 5.0 µg/mL in both cases) for 48 h at 37 °C in 5% CO2.
To evaluate the inhibition of infection, promastigotes (5 × 10^6 cells) were first incubated with Compound 28 or AmpB (0, 1.0, 2.5 and 5.0 µg/mL in both cases) for 4 h at 24 °C; these were then used to infect murine macrophages (at a ratio of 10 parasites per macrophage) and incubated for 24 h at 37 °C in 5% CO2. Then, cells were fixed with 4% paraformaldehyde, washed, and stained with Giemsa. The percentage of infected macrophages and the number of recovered amastigotes were determined by counting 200 cells, in triplicate, using an optical microscope.

[5] = system: Leishmania braziliensis promastigotes; assay: Depolarization of mitochondrial membrane potential (ΔΨm), JC-1; type: cell-based; conditions: one IC50 value, 48 h at 24 °C; non-treated parasites 7.2
Description: Leishmania braziliensis promastigotes (1 × 10^7 cells/mL) were treated with compound 28 (at a concentration corresponding to one IC50 value) for 48 h at 24 °C. The parasites (3 × 10^6 cells/mL) were then labeled with JC-1 (5 µg/mL, Sigma-Aldrich, St. Louis, MO, USA) for 30 min at 37 °C. After washing twice with PBS to remove the non-internalized dye, the samples were added to a black 96-well plate, and the ΔΨm was analyzed in a spectrofluorometer (FLx800, BioTek Instruments, Winooski, VT, USA) with an excitation filter of 485 nm and emission wavelength of 528 nm and […] to measure the green and red fluorescence, respectively. The ΔΨm was determined using the ratio between the red/green fluorescence intensity. Parasites that were exposed to 1.3 µg/mL (5.0 µmol/L) of FCCP (Sigma-Aldrich, St. Louis, MO, USA) for 20 min were used as a control. […]
Figure 4 ΔΨm and ROS production in Leishmania after exposure to Compound 28. […] (A) Depolarization of ΔΨm was evaluated using the JC-1 fluorescent probe. Samples were analyzed fluorometrically, and the results are expressed as the ratio of red/green fluorescence. […] (B) ROS production was evaluated using the H2DCFDA probe. The fluorescence intensity was measured by fluorimetry, and the results are expressed as the fold increase in the ROS level compared with the non-treated control. […]

[6] = system: Leishmania braziliensis stationary promastigotes; assay: In vitro antileishmanial activity against promastigotes (MTT); type: cell-based
Description: The study was approved by the Committee for the Ethical Handling of Research Animals from the Federal University of Minas Gerais (protocol number 085/2017). Leishmania braziliensis (MHOM/BR/1975/M2904) promastigotes were grown at 24 °C in Schneider’s medium (Sigma-Aldrich, USA) supplemented with 20% heat-inactivated fetal bovine serum (FBS, Sigma-Aldrich, USA) and 20 mmol/L L-glutamine at pH 7.4 [65].
as §1

CCN(CC)c1ccc2cc(-n3cc(CNC(=O)/C=C/c4ccc(OC)c(OC)c4)nn3)c(=O)oc2c1 [Compound 28, N-((1-(7-(diethylamino)-2-oxo-2H-chromen-3-yl)-1H-1,2,3-triazol-4-yl)methyl) (3,4-dimethoxy) cinnamide]
CC50 at 48 h [1]: > 600 µg/mL | Fold increase in ROS production compared with untreated parasites [2]: 2.5 fold | IC50 Axenic Amastigotes ([3]; 48 h at 24 °C, MTT, mean ± standard deviation): 87.8 ± 9.7 µg/mL (≈ 174 µM) | Selectivity index (SI), ratio CC50/IC50, axenic amastigotes ([3]; CC50 murine macrophages / IC50 axenic amastigotes): 13.3 | IC50 ([3]; Leishmania braziliensis, 48 h, 48 h at 24 °C, MTT, mean ± standard deviation): 88 ± 9.7 µg/mL (≈ 175 µM) | melting point: 197 to 198.4 °C | Number of Amastigotes per Cell after treatment ([4]; 1.0 µg/mL): 6.7 | Percentage of Infected Macrophages after Treatment ([4]; 1.0 µg/mL): 79.5% | Number of Amastigotes per Cell after treatment ([4]; 2.5 µg/mL): 4.0 | Percentage of Infected Macrophages after Treatment ([4]; 2.5 µg/mL): 70.3% | Number of Amastigotes per Cell after treatment ([4]; 5.0 µg/mL): 2.9 | Percentage of Infected Macrophages after Treatment ([4]; 5.0 µg/mL): 60.2% | ΔΨm, JC-1 ratio of red/green fluorescence [5]: 4.0 | Selectivity index (SI), ratio CC50/IC50, promastigotes ([6]; CC50 murine macrophages / IC50 promastigotes): 11.1 | IC50 ([6]; Leishmania braziliensis, 48 h at 24 °C, MTT, mean ± standard deviation): 106 ± 16.7 µg/mL (≈ 210 µM)
